Our source for the Kd values is publication PMC3022030 (PLoS ONE, 2011).

Where two headings read alike, the source gives them in different places.

Experiment in all cases: biochemical
The target of assay [1] is T1, QacR (Staphylococcus aureus, UniProt P0A0N3, E120A).
The target in assay [2] is T2, QacR (Staphylococcus aureus, UniProt P0A0N3, E90A).
Assay [3] has as its target T2, QacR. The source holds these as a separate data set.
Assay [4] deals with T1, QacR. This is another data set of the same source.

Usually Kd stands for the free concentration of one partner at which half of the binding sites on the other are occupied at equilibrium, for simple one-to-one binding. Low values mean higher affinity, high ones lower affinity. Consider `CN(C)c1ccc(C(=C2C=CC(=[N+](C)C)C=C2)c2ccccc2)cc1` [malachite green], for which the Kd at QacR [1] is 980 ± 320 nM; on QacR [2], 1490 ± 100 nM.
In the case of `CCN=c1cc2oc3cc(NCC)c(C)cc3c(-c3ccccc3C(=O)OCC)c-2cc1C` [rhodamine 6G], the Kd at QacR [1] turned out to be 170 ± 10 nM; at QacR [2], 210 ± 20 nM.
As for `Cc1cc(N)c2ccccc2[n+]1CCCCCCCCCC[n+]1c(C)cc(N)c2ccccc21` [dequalinium], the Kd on QacR [3] worked out at 1800 ± 70 nM; on QacR [4], 2400 ± 600 nM.
Regarding `CC[n+]1c(-c2ccccc2)c2cc(N)ccc2c2ccc(N)cc21` [ethidium], the Kd on QacR [1] stood at 1250 ± 150 nM; at QacR [2] it was 1030 ± 90 nM.
